Measured values as given in ChEMBL document CHEMBL6071181, “Discovery of ZLC491 as a Potent, Selective, and Orally Bioavailable CDK12/13 PROTAC Degrader” (J Med Chem, 2024).
Activity calls are given as the source filed them. The rule behind the calls is not given here.

Experiments:
[1] = biological target: T1, Protein cereblon/Cyclin-dependent kinase 13 (Homo sapiens) (UniProt Q14004+Q96SW2); experiment: PROTAC activity at CRBN/CDK13 in human MDA-MB-231 cells assessed as induction of CDK13 degradation at 1 uM pretreated with pomalidomide followed by compound addition and measured after 10 hrs by immunoblotting analysis; type: cell-based
T1 sequence (Q14004 whole entry, looked up): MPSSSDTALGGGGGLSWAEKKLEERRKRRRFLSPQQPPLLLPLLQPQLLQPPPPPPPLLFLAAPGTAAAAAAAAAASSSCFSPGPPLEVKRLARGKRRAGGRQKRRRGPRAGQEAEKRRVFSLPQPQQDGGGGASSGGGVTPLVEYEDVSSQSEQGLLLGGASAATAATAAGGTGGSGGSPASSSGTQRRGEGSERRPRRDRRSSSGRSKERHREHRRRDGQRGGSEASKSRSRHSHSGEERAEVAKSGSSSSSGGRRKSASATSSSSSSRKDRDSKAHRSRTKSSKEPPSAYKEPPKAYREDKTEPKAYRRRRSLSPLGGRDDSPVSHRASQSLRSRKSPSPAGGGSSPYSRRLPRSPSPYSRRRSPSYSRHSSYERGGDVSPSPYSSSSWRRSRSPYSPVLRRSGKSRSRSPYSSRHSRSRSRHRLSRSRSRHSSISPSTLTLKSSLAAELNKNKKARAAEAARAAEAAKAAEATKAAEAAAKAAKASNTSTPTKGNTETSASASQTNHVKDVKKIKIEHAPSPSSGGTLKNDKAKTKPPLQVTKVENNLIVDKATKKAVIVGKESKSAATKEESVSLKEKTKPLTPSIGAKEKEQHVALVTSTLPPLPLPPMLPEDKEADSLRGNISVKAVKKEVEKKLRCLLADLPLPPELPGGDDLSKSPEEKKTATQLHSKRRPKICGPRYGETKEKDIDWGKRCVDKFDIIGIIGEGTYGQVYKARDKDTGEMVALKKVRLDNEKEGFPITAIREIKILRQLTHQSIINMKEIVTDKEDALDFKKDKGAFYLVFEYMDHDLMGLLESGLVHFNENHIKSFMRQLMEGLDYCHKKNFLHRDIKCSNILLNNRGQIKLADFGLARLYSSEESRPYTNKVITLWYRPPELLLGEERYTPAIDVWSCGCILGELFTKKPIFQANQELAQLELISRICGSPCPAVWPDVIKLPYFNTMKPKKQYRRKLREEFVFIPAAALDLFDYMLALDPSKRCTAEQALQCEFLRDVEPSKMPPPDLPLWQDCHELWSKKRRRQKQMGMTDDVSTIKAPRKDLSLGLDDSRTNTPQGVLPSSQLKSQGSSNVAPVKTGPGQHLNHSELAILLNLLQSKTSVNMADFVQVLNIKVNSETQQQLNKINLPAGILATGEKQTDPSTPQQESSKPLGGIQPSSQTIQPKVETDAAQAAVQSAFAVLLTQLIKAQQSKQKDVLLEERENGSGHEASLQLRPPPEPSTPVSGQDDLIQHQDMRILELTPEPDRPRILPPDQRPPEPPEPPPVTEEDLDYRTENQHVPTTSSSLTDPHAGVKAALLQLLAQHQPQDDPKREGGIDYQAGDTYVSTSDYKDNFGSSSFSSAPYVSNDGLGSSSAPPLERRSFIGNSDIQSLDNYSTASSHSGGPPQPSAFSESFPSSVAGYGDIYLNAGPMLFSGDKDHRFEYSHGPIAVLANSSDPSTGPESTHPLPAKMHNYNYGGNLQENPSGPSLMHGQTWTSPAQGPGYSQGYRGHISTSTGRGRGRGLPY
T1 sequence (Q96SW2 whole entry, looked up): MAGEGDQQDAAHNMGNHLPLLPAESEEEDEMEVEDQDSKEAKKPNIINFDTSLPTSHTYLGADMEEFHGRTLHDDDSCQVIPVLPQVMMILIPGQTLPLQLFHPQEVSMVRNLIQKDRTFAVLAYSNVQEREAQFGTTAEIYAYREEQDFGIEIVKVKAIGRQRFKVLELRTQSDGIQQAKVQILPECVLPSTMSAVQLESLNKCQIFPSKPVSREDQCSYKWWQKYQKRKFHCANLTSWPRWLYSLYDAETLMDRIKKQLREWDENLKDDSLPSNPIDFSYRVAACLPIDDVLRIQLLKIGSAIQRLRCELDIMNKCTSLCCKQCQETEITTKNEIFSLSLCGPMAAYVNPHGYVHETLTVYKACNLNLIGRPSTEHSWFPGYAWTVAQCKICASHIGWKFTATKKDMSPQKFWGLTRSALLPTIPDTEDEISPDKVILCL

[2] = Toxicity in female CB17SCID mouse model xenografted with human MDA-MB-231 cells assessed as body weight loss at 100 to 200 mg/kg, po administered for 5 days; type: organism-based; conditions: in vivo, 120 h, dose 100-200 mg/kg, time 5 day
MDA-MB-231 [3] = experiment: Synergistic antiproliferative activity against human MDA-MB-231 cells assessed as combination index at 0.3 uM incubated for 5 days in presence of cisplatin by CCK8 assay; type: functional; conditions: time 5 day
[4] = biological target: T2, Protein cereblon/Cyclin-dependent kinase 12 (Homo sapiens) (UniProt Q9NYV4+Q96SW2); experiment: PROTAC activity at CRBN/CDK12 in human MDA-MB-231 cells assessed as induction of CDK12 degradation at 2 uM incubated for 8 hrs by global proteomic analysis; type: cell-based
T2 sequence (Q96SW2 whole entry, looked up): as above
T2 sequence (Q9NYV4 whole entry, looked up): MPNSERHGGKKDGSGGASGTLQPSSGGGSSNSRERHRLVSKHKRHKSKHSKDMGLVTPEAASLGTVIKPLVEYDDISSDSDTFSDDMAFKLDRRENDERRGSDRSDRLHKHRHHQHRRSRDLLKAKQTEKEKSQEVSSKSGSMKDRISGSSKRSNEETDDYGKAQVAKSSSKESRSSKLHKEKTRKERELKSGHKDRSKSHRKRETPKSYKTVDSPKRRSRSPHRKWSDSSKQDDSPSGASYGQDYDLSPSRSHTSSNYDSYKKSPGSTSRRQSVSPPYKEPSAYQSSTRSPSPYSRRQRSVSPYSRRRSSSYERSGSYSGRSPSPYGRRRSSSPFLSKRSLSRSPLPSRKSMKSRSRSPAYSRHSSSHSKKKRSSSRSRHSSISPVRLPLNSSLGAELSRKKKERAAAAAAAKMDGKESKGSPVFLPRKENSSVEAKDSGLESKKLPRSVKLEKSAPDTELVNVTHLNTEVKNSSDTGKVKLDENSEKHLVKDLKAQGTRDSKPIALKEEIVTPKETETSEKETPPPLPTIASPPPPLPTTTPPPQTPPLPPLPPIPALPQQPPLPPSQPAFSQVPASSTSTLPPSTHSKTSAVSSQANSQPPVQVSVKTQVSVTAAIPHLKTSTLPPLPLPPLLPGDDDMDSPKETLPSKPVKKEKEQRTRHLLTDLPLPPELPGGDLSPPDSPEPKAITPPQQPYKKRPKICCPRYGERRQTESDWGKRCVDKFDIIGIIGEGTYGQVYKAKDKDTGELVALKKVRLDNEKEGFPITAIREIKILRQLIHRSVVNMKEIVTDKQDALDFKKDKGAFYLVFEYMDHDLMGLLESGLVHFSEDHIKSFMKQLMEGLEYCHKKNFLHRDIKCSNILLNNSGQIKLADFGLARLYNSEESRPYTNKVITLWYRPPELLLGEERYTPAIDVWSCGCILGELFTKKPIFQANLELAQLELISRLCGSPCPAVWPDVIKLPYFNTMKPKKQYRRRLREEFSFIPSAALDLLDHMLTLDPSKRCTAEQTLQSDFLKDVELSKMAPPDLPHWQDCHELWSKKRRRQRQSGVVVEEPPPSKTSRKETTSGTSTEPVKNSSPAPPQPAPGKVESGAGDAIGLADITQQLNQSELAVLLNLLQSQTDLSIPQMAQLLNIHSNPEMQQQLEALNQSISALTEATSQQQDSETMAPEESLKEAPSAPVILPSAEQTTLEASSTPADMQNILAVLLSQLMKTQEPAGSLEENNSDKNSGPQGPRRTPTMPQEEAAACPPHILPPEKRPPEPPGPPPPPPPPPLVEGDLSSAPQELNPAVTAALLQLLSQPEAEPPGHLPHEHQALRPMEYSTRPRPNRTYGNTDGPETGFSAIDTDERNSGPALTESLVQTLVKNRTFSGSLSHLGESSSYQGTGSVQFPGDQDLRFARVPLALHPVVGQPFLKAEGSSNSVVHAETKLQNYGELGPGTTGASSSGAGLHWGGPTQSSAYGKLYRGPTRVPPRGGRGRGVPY

MDA-MB-231 [5] = experiment: Synergistic antiproliferative activity against human MDA-MB-231 cells assessed as combination index at 7.5 uM incubated for 5 days in presence of olaparib by CCK8 assay; type: functional; conditions: time 5 day
[6] = biological target: T1, Protein cereblon/Cyclin-dependent kinase 13 (Homo sapiens); experiment: PROTAC activity at CRBN/CDK13 in human MDA-MB-231 cells assessed as induction of CDK13 degradation at 1 uM pretreated with MG132 followed by compound addition and measured after 10 hrs by immunoblotting analysis; type: cell-based
[7] = biological target: T2, Protein cereblon/Cyclin-dependent kinase 12 (Homo sapiens); experiment: In vivo PROTAC activity at CRBN/CDK12 in female CB17SCID mouse model xenografted with human MDA-MB-231 cells assessed as reduction in CDK12 protein expression in tumor at 100 to 200 mg/kg, po administered for 5 days by immunoblotting analysis; type: functional, organism-based; conditions: dose 100-200 mg/kg, time 5.0 day
[8] = biological target: T1, Protein cereblon/Cyclin-dependent kinase 13 (Homo sapiens); experiment: PROTAC activity at CRBN/CDK13 in human MDA-MB-231 cells assessed as induction of CDK13 degradation at 1 uM pretreated with bafilomycin followed by compound addition and measured after 10 hrs by immunoblotting analysis; type: cell-based
MDA-MB-231 [9] = experiment: Synergistic antiproliferative activity against human MDA-MB-231 cells assessed as inhibition of cell growth at 0.3 to 7.5 uM incubated for 5 days in presence of olaparib by CCK8 assay; type: functional, cell-based; conditions: dose 0.3-7.5 µM, time 5.0 day
[10] = biological target: T2, Protein cereblon/Cyclin-dependent kinase 12 (Homo sapiens); experiment: PROTAC activity at CRBN/CDK12 in human MDA-MB-231 cells assessed as induction of CDK12 degradation at 1 uM pretreated with MLN4924 followed by compound addition and measured after 10 hrs by immunoblotting analysis; type: cell-based
[11] = biological target: T2, Protein cereblon/Cyclin-dependent kinase 12 (Homo sapiens); experiment: PROTAC activity at CRBN/CDK12 in human MDA-MB-436 cells assessed as induction of CDK12 degradation incubated for 15 hrs by immunoblotting analysis; type: cell-based; conditions: dose 0.01-3 µM
MDA-MB-231 [12] = experiment: Downregulation of FANCD2 mRNA expression in human MDA-MB-231 cells incubated for 12 hrs by RT-qPCR analysis; type: functional, cell-based; conditions: dose 60-300 nM
[13] = biological target: T1, Protein cereblon/Cyclin-dependent kinase 13 (Homo sapiens); experiment: PROTAC activity at CRBN/CDK13 in human MDA-MB-231 cells assessed as induction of CDK13 degradation incubated for 15 hrs by immunoblotting analysis; type: cell-based
[14] = biological target: T1, Protein cereblon/Cyclin-dependent kinase 13 (Homo sapiens); experiment: PROTAC activity at CRBN/CDK13 in human MDA-MB-231 cells assessed as induction of CDK13 degradation at 1 uM by immunoblotting analysis; type: cell-based; conditions: time <= 24.0 hrs, TDE = time-dependent effect
MDA-MB-231 [15] = experiment: Induction of CCNK degradation in human MDA-MB-231 cells at 2 uM incubated for 8 hrs by global proteomic analysis; type: cell-based
[16] = Antiproliferative activity against HEK293 cells assessed as inhibition of cell growth incubated for 5 days by CCK8 assay; type: toxicity, cell-based; conditions: human
MDA-MB-231 [17] = experiment: Antiproliferative activity against human MDA-MB-231 cells xenografted in female CB17SCID mouse model assessed as induction of tumor apoptosis at 200 mg/kg, po administered for 5 days by H and E staining based immunohistochemical analysis; type: functional, organism-based; conditions: time 5.0 day
MDA-MB-231 [18] = experiment: Synergistic antiproliferative activity against human MDA-MB-231 cells assessed as inhibition of cell growth at 0.3 to 7.5 uM incubated for 5 days in presence of cisplatin by CCK8 assay; type: functional, cell-based; conditions: dose 0.3-7.5 µM, time 5.0 day
MDA-MB-231 [19] = experiment: Downregulation of BRCA2 mRNA expression in human MDA-MB-231 cells incubated for 12 hrs by RT-qPCR analysis; type: functional, cell-based; conditions: dose 60-300 nM
[20] = biological target: T1, Protein cereblon/Cyclin-dependent kinase 13 (Homo sapiens); experiment: In vivo PROTAC activity at CRBN/CDK13 in female CB17SCID mouse model xenografted with human MDA-MB-231 cells assessed as reduction in CDK13 protein expression in tumor at 100 to 200 mg/kg, po administered for 5 days by immunoblotting analysis; type: functional, organism-based; conditions: dose 100-200 mg/kg, time 5.0 day
[21] = biological target: T1, Protein cereblon/Cyclin-dependent kinase 13 (Homo sapiens); experiment: PROTAC activity at CRBN/CDK13 in human MDA-MB-231 cells assessed as induction of CDK13 degradation at 2 uM by […] proteomic analysis; type: cell-based
MDA-MB-231 [22] = experiment: Downregulation of ATM mRNA expression in human MDA-MB-231 cells incubated for 12 hrs by RT-qPCR analysis; type: functional, cell-based; conditions: dose 60-300 nM
MDA-MB-231 [23] = experiment: Antiproliferative activity against human MDA-MB-231 cells xenografted in female CB17SCID mouse model assessed as increase in TUNEL signaling in tumor at 200 mg/kg, po administered for 5 days by TUNEL staining based immunohistochemical analysis; type: functional, organism-based; conditions: time 5.0 day
[24] = biological target: T2, Protein cereblon/Cyclin-dependent kinase 12 (Homo sapiens); experiment: PROTAC activity at CRBN/CDK12 in human MDA-MB-231 cells assessed as induction of CDK12 degradation at 1 uM by immunoblotting analysis; type: cell-based; conditions: time <= 24.0 hrs, TDE = time-dependent effect
MDA-MB-231 [25] = experiment: Synergistic antiproliferative activity against human MDA-MB-231 cells assessed as combination index at 7.5 uM incubated for 5 days in presence of cisplatin by CCK8 assay; type: functional; conditions: time 5 day
MDA-MB-231 [26] = experiment: Synergistic antiproliferative activity against human MDA-MB-231 cells assessed as combination index at 1.5 uM incubated for 5 days in presence of cisplatin by CCK8 assay; type: functional; conditions: time 5 day
[27] = biological target: T1, Protein cereblon/Cyclin-dependent kinase 13 (Homo sapiens); experiment: PROTAC activity at CRBN/CDK13 in human MDA-MB-436 cells assessed as induction of CDK13 degradation incubated for 15 hrs by immunoblotting analysis; type: cell-based; conditions: dose 0.01-3 µM
MDA-MB-231 [28] = experiment: Downregulation of BRCA1 mRNA expression in human MDA-MB-231 cells incubated for 12 hrs by RT-qPCR analysis; type: functional, cell-based; conditions: dose 60-300 nM
[29] = biological target: T1, Protein cereblon/Cyclin-dependent kinase 13 (Homo sapiens); experiment: PROTAC activity at CRBN/CDK13 in human MDA-MB-231 cells assessed as induction of CDK13 degradation at 1 uM pretreated with 3-benzyl-1-((1r,4r)-4-((5-cyanopyridin-2-yl)amino)cyclohexyl)-1-(4-(piperazin-1-yl)phenyl)urea followed by compound addition and measured after 10 hrs by immunoblotting analysis; type: cell-based
MDA-MB-231 [30] = experiment: Induction of CCNK degradation in human MDA-MB-231 cells incubated for 15 hrs by immunoblotting analysis; type: cell-based; conditions: dose 0.01-3 µM
MDA-MB-231 [31] = experiment: Synergistic antiproliferative activity against human MDA-MB-231 cells assessed as combination index at 1.5 uM incubated for 5 days in presence of olaparib by CCK8 assay; type: functional; conditions: time 5 day

Activity [1]: inactive | Activity [4]: Active | Activity [6]: inactive | Activity [7]: Active | Activity [8]: Active | Activity [10]: inactive | Activity [11]: Dose-Dependent Effect | Activity [13]: Dose-Dependent Effect | Activity [14]: Tde | Activity [20]: Active | Activity [21]: Active | Activity [24]: Tde | Activity [27]: Dose-Dependent Effect | Activity [29]: inactive
SMILES: N#Cc1ccc(N[C@H]2CC[C@H](N(C(=O)NCc3ccccc3)c3ccc(N4CCN(C5CCN(c6cc7c(cc6F)C(=O)N(C6CCC(=O)NC6=O)C7=O)CC5)CC4)cc3)CC2)nc1 (stereo partly specified)
Activity [2]: Non-Toxic | CI (MDA-MB-231 [3]): >1 | CI (MDA-MB-231 [5]): 0.85 | Activity (MDA-MB-231 [9]): Active | Activity (MDA-MB-231 [12]): Dose-Dependent Effect | Activity (MDA-MB-231 [15]): Active | IC50 at 5 days [16]: > 10 µM | Activity (MDA-MB-231 [17]): Active | Activity (MDA-MB-231 [18]): Active | Activity (MDA-MB-231 [19]): Dose-Dependent Effect | Activity (MDA-MB-231 [22]): Dose-Dependent Effect | Activity (MDA-MB-231 [23]): Active | CI (MDA-MB-231 [25]): 0.07 | CI (MDA-MB-231 [26]): 0.17 | Activity (MDA-MB-231 [28]): Dose-Dependent Effect | Activity (MDA-MB-231 [30]): Dose-Dependent Effect | CI (MDA-MB-231 [31]): 0.9
